Molecular target: IRAK4 (Homo sapiens (Human), UniProt Q9NWZ3)
Assay: In vitro IRAK4 phosphorylation activity assay
Format: biochemical
Details: [γ-33P]-ATP, myelin basic protein substrate, 40 minutes at room temperature; categories
How it was run: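 Radiometric filter-binding assay, no compound–kinase preincubation; 8 mM MOPS pH 7.0, 0.2 mM EDTA, 10 mM Mg acetate, 0.33 mg/mL myelin basic protein substrate, [γ-33P]-ATP. Reaction 40 min at room temperature, stopped with phosphoric acid, scintillation counting; IC50 reported in categories.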

IRAK4, sequence (Q9NWZ3 whole entry): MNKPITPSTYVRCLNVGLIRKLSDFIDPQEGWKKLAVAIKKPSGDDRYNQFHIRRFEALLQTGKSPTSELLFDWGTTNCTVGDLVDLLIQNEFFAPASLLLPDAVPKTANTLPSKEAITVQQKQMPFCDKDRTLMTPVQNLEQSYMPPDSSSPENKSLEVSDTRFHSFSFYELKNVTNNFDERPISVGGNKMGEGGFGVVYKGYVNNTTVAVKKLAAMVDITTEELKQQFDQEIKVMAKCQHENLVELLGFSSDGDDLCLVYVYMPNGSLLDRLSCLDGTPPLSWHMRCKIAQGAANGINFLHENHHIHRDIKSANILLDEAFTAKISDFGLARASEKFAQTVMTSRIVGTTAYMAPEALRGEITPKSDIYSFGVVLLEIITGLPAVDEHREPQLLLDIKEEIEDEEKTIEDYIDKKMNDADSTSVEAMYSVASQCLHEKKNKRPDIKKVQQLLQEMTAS

Row | SMILES | IC50
1 | Cn1ncc2cc(-c3cccc(C(=O)Nc4nc(CCCCCC(=O)N5CCCCC5)cn4-c4ccccc4)c3)ccc21 [Example 251, 3-(1-methyl-1H-indazol-5-yl)-N-(4-(6-oxo-6-(piperidin-1-yl)hexyl)-1-phenyl-1H-imidazol-2-yl)benzamide] | > 0.1 µM
2 | O=C(CCc1cn(-c2ccncc2)c(NC(=O)c2cccc(-c3cn[nH]c3)c2)n1)Nc1ccccc1 [Example 303, N-(4-(3-oxo-3-(phenylamino)propyl)-1-(pyridin-4-yl)-1H-imidazol-2-yl)-3-(1H-pyrazol-4-yl)benzamide] | > 0.1 µM
3 | O=C(CCc1cn(-c2ccccc2)c(NC(=O)c2cccc(-c3cn[nH]c3)c2)n1)Nn1cnnc1 [Example 21, N-(4-(3-((4H-1,2,4-triazol-4-yl)amino)-3-oxopropyl)-1-phenyl-1H-imidazol-2-yl)-3-(1H-pyrazol-4-yl)benzamide] | 0.05 to 0.1 µM
4 | O=C(Nc1nc(CCCCCCNc2ccccc2)cn1-c1ccccc1)c1cccc(-c2cn[nH]c2)c1 [Example 122, N-(1-phenyl-4-(6-(phenylamino)hexyl)-1H-imidazol-2-yl)-3-(1H-pyrazol-4-yl)benzamide] | 0.05 to 0.1 µM
5 | COC[C@@H]1CCCN1C(=O)Cc1cn(-c2ccccc2)c(NC(=O)c2cccc(-c3cn[nH]c3)c2)n1 [Example 46, (S)—N-(4-(2-(2-(methoxymethyl)pyrrolidin-1-yl)-2-oxoethyl)-1-phenyl-1H-imidazol-2-yl)-3-(1H-pyrazol-4-yl)benzamide] | 0.05 to 0.1 µM
6 | COC[C@@H]1CCCN1NC(=O)CCc1cn(-c2ccccc2)c(NC(=O)c2cccc(-c3cn[nH]c3)c2)n1 [Example 13, (S)—N-(4-(3-((2-(methoxymethyl)pyrrolidin-1-yl)amino)-3-oxopropyl)-1-phenyl-1H-imidazol-2-yl)-3-(1H-pyrazol-4-yl)benzamide] | 0.05 to 0.1 µM
7 | CCOC(C)n1cc(-c2cccc(C(=O)Nc3nc(CCCCCCN4CCCCC4)cn3-c3ccccc3)c2)cn1 (stereo not shown) [Example 138, 3-(1-(1-ethoxyethyl)-1H-pyrazol-4-yl)-N-(1-phenyl-4-(6-(piperidin-1-yl)hexyl)-1H-imidazol-2-yl)benzamide] | 0.05 to 0.1 µM
8 | O=C(CCCCCc1cn(-c2ccccc2)c(NC(=O)c2cccc(-c3ccc4scnc4c3)c2)n1)NC1CC1 [Example 290, 3-(benzo[d]thiazol-5-yl)-N-(4-(6-(cyclopropylamino)-6-oxohexyl)-1-phenyl-1H-imidazol-2-yl)benzamide] | > 0.1 µM
9 | O=C(CCc1cn(-c2ccccc2)c(NC(=O)c2cccc(-c3cn[nH]c3)c2)n1)NN1CCCC1 [Example 27, N-(4-(3-oxo-3-(pyrrolidin-1-ylamino)propyl)-1-phenyl-1H-imidazol-2-yl)-3-(1H-pyrazol-4-yl)benzamide] | > 0.1 µM
10 | O=C(Nc1nc(CCCCCCO)cn1-c1ccccc1)c1cccc(-c2cn[nH]c2)c1 [Example 121, N-(4-(6-hydroxyhexyl)-1-phenyl-1H-imidazol-2-yl)-3-(1H-pyrazol-4-yl)benzamide] | < 0.05 µM
11 | CC(C)OC(=O)CCCc1cn(-c2ccccc2)c(NC(=O)c2cccc(-c3cn[nH]c3)c2)n1 [Example 70, isopropyl 4-(2-(3-(1H-pyrazol-4-yl)benzamido)-1-phenyl-1H-imidazol-4-yl)butanoate] | < 0.05 µM
12 | Nc1ccc(-c2cccc(C(=O)Nc3nc(CCCCCCN4CCCC4=O)cn3-c3ccccc3)c2)cn1 [Example 276, 3-(6-aminopyridin-3-yl)-N-(4-(6-(2-oxopyrrolidin-1-yl)hexyl)-1-phenyl-1H-imidazol-2-yl)benzamide] | < 0.05 µM
13 | C[C@@H]1CCCN1C(=O)CCc1cn(-c2ccccc2)c(NC(=O)c2cccc(-c3cn[nH]c3)c2)n1 [Example 23, (R)—N-(4-(3-(2-methylpyrrolidin-1-yl)-3-oxopropyl)-1-phenyl-1H-imidazol-2-yl)-3-(1H-pyrazol-4-yl)benzamide] | < 0.05 µM
14 | O=C(Nc1nc(CCCCN2CCSCC2)cn1-c1ccccc1)c1cccc(-c2cn[nH]c2)c1 [Example 115, N-(1-phenyl-4-(4-thiomorpholinobutyl)-1H-imidazol-2-yl)-3-(1H-pyrazol-4-yl)benzamide] | < 0.05 µM
15 | Cn1cc(-c2cccc(C(=O)Nc3nc(CCCC(=O)N4CCC[C@H](N)C4)cn3-c3ccccc3)c2)cn1 [Example 211, (S)—N-(4-(4-(3-aminopiperidin-1-yl)-4-oxobutyl)-1-phenyl-1H-imidazol-2-yl)-3-(1-methyl-1H-pyrazol-4-yl)benzamide] | < 0.05 µM
16 | O=C(CCc1cn(-c2ccccc2)c(NC(=O)c2cccc(-c3cn[nH]c3)c2)n1)NN1CCCCC1 [Example 8, N-(4-(3-oxo-3-(piperidin-1-ylamino)propyl)-1-phenyl-1H-imidazol-2-yl)-3-(1H-pyrazol-4-yl)benzamide] | 0.05 to 0.1 µM
17 | CN(C)C1CCC(NC(=O)CCCc2cn(-c3ccccc3)c(NC(=O)c3cccc(-c4cnn(C)c4)c3)n2)CC1 (stereo not shown) [Example 147, N-(4-(4-((4-(dimethylamino)cyclohexyl)amino)-4-oxobutyl)-1-phenyl-1H-imidazol-2-yl)-3-(1-methyl-1H-pyrazol-4-yl)benzamide] | < 0.05 µM
18 | O=C(CCCc1cn(-c2ccccc2)c(NC(=O)c2cccc(-c3ccc4scnc4c3)c2)n1)NC1CC1 [Example 283, 3-(benzo[d]thiazol-5-yl)-N-(4-(4-(cyclopropylamino)-4-oxobutyl)-1-phenyl-1H-imidazol-2-yl)benzamide] | > 0.1 µM

Second part, the compound after the results:

Row | IC50 | SMILES
19 | < 0.05 µM | O=C(CCCc1cn(-c2ccccc2)c(NC(=O)c2cccc(-c3ccc4[nH]ncc4c3)c2)n1)NC1CC1 [Example 245, N-(4-(4-(cyclopropylamino)-4-oxobutyl)-1-phenyl-1H-imidazol-2-yl)-3-(1H-indazol-5-yl)benzamide]
20 | < 0.05 µM | O=C(Nc1nc(CCCCCCN2CCCCC2)cn1-c1ccccc1)c1cccc(-c2ccc3[nH]ncc3c2)c1 [Example 252, 3-(1H-indazol-5-yl)-N-(1-phenyl-4-(6-(piperidin-1-yl)hexyl)-1H-imidazol-2-yl)benzamide]
21 | < 0.05 µM | O=C(CCc1cn(-c2ccccc2)c(NC(=O)c2cccc(-c3cn[nH]c3)c2)n1)Nc1ccc(F)cc1F [Example 16, N-(4-(3-((2,4-difluorophenyl)amino)-3-oxopropyl)-1-phenyl-1H-imidazol-2-yl)-3-(1H-pyrazol-4-yl)benzamide]
22 | < 0.05 µM | CN1CCN(CCCCc2cn(-c3ccccc3)c(NC(=O)c3cccc(-c4cnn(C)c4)c3)n2)CC1 [Example 221, 3-(1-methyl-1H-pyrazol-4-yl)-N-(4-(4-(4-methylpiperazin-1-yl)butyl)-1-phenyl-1H-imidazol-2-yl)benzamide]
23 | < 0.05 µM | CN(C)C1CCN(C(=O)CCCc2cn(-c3ccccc3)c(NC(=O)c3cccc(-c4ccc5ncsc5c4)c3)n2)CC1 [Example 281, 3-(benzo[d]thiazol-6-yl)-N-(4-(4-(4-(dimethylamino)piperidin-1-yl)-4-oxobutyl)-1-phenyl-1H-imidazol-2-yl)benzamide]
24 | < 0.05 µM | CNC(=O)CCCCCc1cn(-c2ccccc2)c(NC(=O)c2cccc(-c3cn[nH]c3)c2)n1 [Example 94, N-(4-(6-(methylamino)-6-oxohexyl)-1-phenyl-1H-imidazol-2-yl)-3-(1H-pyrazol-4-yl)benzamide]
25 | < 0.05 µM | Cn1cc(-c2cccc(C(=O)Nc3nc(CCCC(=O)N4CCC[C@H](C(=O)O)C4)cn3-c3ccccc3)c2)cn1 [Example 207, (S)-1-(4-(2-(3-(1-methyl-1H-pyrazol-4-yl)benzamido)-1-phenyl-1H-imidazol-4-yl)butanoyl)piperidine-3-carboxylic acid]
26 | < 0.05 µM | O=C(CCCCc1cn(-c2ccccc2)c(NC(=O)c2cccc(-c3cn[nH]c3)c2)n1)NC1CCCCC1 [Example 89, N-(4-(5-(cyclohexylamino)-5-oxopentyl)-1-phenyl-1H-imidazol-2-yl)-3-(1H-pyrazol-4-yl)benzamide]
27 | < 0.05 µM | CCN1CCN(C(=O)CCCc2cn(-c3ccccc3)c(NC(=O)c3cccc(-c4cnn(C)c4)c3)n2)CC1 [Example 144, N-(4-(4-(4-ethylpiperazin-1-yl)-4-oxobutyl)-1-phenyl-1H-imidazol-2-yl)-3-(1-methyl-1H-pyrazol-4-yl)benzamide]
28 | < 0.05 µM | O=C(Nc1nc(CCCN2CCCCC2)cn1-c1ccccc1)c1cccc(-c2cn[nH]c2)c1 [Example 106, N-(1-phenyl-4-(3-(piperidin-1-yl)propyl)-1H-imidazol-2-yl)-3-(1H-pyrazol-4-yl)benzamide]
29 | < 0.05 µM | CC1(C)CCCN(C(=O)CCc2cn(-c3ccccc3)c(NC(=O)c3cccc(-c4cn[nH]c4)c3)n2)C1 [Example 34, N-(4-(3-(3,3-dimethylpiperidin-1-yl)-3-oxopropyl)-1-phenyl-1H-imidazol-2-yl)-3-(1H-pyrazol-4-yl)benzamide]
30 | < 0.05 µM | C[C@H]1CCCN1C(=O)CCc1cn(-c2ccccc2)c(NC(=O)c2cccc(-c3cn[nH]c3)c2)n1 [Example 24, (S)—N-(4-(3-(2-methylpyrrolidin-1-yl)-3-oxopropyl)-1-phenyl-1H-imidazol-2-yl)-3-(1H-pyrazol-4-yl)benzamide]
31 | < 0.05 µM | Cn1cc(-c2cccc(C(=O)Nc3nc(CCCC(=O)N4CCC(C#N)CC4)cn3-c3ccccc3)c2)cn1 [Example 168, N-(4-(4-(4-cyanopiperidin-1-yl)-4-oxobutyl)-1-phenyl-1H-imidazol-2-yl)-3-(1-methyl-TH-pyrazol-4-yl)benzamide]
32 | < 0.05 µM | C[C@@H]1CCCCN1C(=O)CCc1cn(-c2ccccc2)c(NC(=O)c2cccc(-c3cn[nH]c3)c2)n1 [Example 30, (R)—N-(4-(3-(2-methylpiperidin-1-yl)-3-oxopropyl)-1-phenyl-1H-imidazol-2-yl)-3-(1H-pyrazol-4-yl)benzamide]
33 | < 0.05 µM | O=C(Nc1nc(CCCCCCN2CCCCC2=O)cn1-c1ccccc1)c1cccc(-c2ccc3[nH]ncc3c2)c1 [Example 260, 3-(1H-indazol-5-yl)-N-(4-(6-(2-oxopiperidin-1-yl)hexyl)-1-phenyl-1H-imidazol-2-yl)benzamide]
34 | < 0.05 µM | O=C(Nc1nc(CCCCCNc2ccccc2)cn1-c1ccccc1)c1cccc(-c2cn[nH]c2)c1 [Example 117, N-(1-phenyl-4-(5-(phenylamino)pentyl)-1H-imidazol-2-yl)-3-(1H-pyrazol-4-yl)benzamide]

From patent publication US12534452B2, “N-(1H-imidazol-2-yl)benzamide compound and pharmaceutical composition comprising the same as active ingredient” (KAINOS MEDICINE, INC., priority 2019, dated 2026)
